From paper PMC5641481 (Science (New York, N.Y.), 2017) come the findings set out here.

Bounds are passed on as bounds.

Assay [1] has as its system other proteins of the endocannabinoid system, endocannabinoid-binding TRP ion channels. Briefly: interaction with other endocannabinoid system proteins and TRP channels.
Another assay has as its target T1, rat FAAH (Rattus norvegicus, UniProt P97612).
T1 sequence (P97612 1-579): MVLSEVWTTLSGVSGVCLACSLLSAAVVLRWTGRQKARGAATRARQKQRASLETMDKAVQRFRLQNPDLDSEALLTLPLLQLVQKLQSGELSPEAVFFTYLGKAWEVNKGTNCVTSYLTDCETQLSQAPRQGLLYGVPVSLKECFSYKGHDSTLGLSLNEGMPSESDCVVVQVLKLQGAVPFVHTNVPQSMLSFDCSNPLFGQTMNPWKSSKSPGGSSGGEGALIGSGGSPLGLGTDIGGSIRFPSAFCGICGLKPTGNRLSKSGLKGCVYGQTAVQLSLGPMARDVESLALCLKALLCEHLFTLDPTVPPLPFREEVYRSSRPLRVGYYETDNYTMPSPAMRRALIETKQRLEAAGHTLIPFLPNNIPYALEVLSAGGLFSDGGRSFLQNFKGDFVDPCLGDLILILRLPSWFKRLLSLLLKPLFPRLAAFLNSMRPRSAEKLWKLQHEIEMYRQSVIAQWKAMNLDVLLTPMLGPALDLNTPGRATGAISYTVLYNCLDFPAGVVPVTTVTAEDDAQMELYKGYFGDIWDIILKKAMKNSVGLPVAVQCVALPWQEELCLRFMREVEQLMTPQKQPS
The assay is described as follows: substrate hydrolysis assay. It counts as biochemical. As to conditions: in vitro.

The target of the next assay is T2, ABHD11 (Homo sapiens, UniProt Q8NFV4).
T2 sequence (Q8NFV4 1-306): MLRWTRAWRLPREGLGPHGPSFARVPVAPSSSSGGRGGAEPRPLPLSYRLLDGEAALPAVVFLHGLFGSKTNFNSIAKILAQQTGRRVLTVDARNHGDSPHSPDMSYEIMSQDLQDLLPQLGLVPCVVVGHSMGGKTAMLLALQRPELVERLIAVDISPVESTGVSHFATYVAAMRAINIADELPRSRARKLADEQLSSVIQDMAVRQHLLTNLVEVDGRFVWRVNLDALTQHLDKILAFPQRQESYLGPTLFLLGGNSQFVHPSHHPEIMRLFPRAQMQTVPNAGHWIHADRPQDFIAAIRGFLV
The assay is described as follows: competitive gel-based ABPP, intact HEK293T cells. As to conditions: ABHD11, in situ (4 h). It counts as cell-based.

Assay [2] concerns the target T3, ABHD6 (Homo sapiens, UniProt Q9BV23).
T3 sequence (Q9BV23 1-337): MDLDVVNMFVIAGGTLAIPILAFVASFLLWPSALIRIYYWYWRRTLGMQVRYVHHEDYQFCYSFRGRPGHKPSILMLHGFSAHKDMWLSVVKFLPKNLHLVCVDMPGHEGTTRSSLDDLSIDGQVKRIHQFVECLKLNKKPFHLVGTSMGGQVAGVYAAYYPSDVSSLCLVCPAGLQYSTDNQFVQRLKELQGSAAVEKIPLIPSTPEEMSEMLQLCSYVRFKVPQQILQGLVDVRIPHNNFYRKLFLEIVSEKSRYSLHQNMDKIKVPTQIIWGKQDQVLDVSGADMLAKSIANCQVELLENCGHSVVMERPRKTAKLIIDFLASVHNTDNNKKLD
Briefly: ABPP of human frontal cortex proteome. As to conditions: human frontal cortex proteome (post-mortem). It counts as biochemical.

The target in assay [3] is T4, FAAH (Homo sapiens, UniProt O00519).
T4 sequence (O00519 1-579): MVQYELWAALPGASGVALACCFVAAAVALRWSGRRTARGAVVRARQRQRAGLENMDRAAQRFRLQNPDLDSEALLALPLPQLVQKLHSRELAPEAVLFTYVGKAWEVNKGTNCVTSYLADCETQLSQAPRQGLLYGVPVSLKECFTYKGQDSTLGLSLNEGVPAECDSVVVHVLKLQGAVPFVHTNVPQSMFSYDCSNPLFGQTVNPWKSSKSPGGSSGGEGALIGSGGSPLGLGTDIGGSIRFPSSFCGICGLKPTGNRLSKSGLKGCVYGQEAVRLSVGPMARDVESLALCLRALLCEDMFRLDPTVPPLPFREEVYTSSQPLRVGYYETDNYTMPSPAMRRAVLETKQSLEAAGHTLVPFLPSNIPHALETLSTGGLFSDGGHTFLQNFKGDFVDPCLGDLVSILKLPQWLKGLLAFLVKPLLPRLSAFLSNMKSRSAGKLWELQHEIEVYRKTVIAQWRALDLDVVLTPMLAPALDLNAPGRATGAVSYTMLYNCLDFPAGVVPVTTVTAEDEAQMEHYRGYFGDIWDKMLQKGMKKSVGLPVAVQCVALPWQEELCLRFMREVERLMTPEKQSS
The assay is described as follows: ABPP of human frontal cortex proteome. Format: biochemical. The conditions noted are these: human frontal cortex proteome (post-mortem).

Assay [4] concerns the target T3, ABHD6. Briefly: competitive gel-based ABPP, intact HEK293T cells. It counts as cell-based. As to conditions: ABHD6, in situ (4 h).
Assay [5] addresses T4, FAAH. The assay is described as follows: anandamide substrate hydrolysis assay, intact transfected HEK293T cells. It counts as cell-based. As to conditions: human FAAH in transfected HEK293T cells, in situ.
Assay [6] deals with T4, FAAH. The assay is described as follows: competitive gel-based ABPP, intact HEK293T cells. As to conditions: in situ (4 h). It counts as cell-based.
Assay [7] concerns the target T4, FAAH. The assay is described as follows: competitive gel-based ABPP, HEK293T cell lysates. It counts as biochemical. As to conditions: in vitro, HEK293T recombinantly expressing human enzyme.
In assay [8] the target is T3, ABHD6. Briefly: MS-based ABPP in SW620 cells. Format: cell-based.
In another assay the target is PNPLA6 (Homo sapiens, UniProt Q8IY17). The conditions noted are these: PNPLA6, in situ (24 h), gel-based ABPP, HEK293T.
The target in the next assay is T5, FAAH2 (Homo sapiens, UniProt Q6GMR7).
T5 sequence (Q6GMR7 1-532): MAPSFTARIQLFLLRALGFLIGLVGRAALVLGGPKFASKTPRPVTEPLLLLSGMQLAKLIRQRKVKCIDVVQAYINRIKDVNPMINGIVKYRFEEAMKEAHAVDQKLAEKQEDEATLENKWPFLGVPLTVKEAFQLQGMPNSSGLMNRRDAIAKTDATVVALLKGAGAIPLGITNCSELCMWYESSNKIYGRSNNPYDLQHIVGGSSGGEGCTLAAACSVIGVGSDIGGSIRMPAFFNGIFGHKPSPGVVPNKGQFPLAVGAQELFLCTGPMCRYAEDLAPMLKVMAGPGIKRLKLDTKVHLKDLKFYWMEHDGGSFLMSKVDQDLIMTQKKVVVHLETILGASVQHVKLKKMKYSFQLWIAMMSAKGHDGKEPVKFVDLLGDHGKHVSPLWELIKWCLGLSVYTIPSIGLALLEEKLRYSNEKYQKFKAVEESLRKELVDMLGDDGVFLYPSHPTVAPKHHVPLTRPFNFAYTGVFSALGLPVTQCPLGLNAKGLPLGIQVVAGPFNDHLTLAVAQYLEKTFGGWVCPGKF
The assay is described as follows: competitive gel-based ABPP, intact HEK293T cells. It counts as cell-based. The conditions noted are these: FAAH2, in situ (4 h).

Assay [9] has as its target T4, FAAH. The assay is described as follows: anandamide substrate hydrolysis assay, HEK293T cell lysates. It counts as biochemical. The conditions noted are these: in vitro.
Assay [10] has as its target T4, FAAH. The assay is described as follows: MS-based ABPP in SW620 cells. The conditions noted are these: all tested concentrations (0.2, 10, and 50 μM). Format: cell-based.
Another assay addresses T6, CES2 (Homo sapiens, UniProt O00748).
T6 sequence (O00748 27-559): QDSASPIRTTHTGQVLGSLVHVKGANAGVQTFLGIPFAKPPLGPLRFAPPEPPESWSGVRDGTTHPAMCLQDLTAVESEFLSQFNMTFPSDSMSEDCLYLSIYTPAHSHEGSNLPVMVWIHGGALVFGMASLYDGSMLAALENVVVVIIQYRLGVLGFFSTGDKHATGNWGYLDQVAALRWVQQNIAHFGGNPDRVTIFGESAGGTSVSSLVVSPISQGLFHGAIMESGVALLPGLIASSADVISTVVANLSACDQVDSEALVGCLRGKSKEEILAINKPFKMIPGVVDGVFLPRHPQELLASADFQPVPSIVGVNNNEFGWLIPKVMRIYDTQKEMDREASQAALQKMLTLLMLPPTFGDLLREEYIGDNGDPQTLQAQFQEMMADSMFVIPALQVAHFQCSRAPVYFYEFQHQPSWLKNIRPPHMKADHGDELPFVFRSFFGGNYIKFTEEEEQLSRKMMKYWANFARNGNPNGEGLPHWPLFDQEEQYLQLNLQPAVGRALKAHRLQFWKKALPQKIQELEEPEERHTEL
The assay is described as follows: competitive gel-based ABPP, intact HEK293T cells. As to conditions: CES2, in situ (4 h). It counts as cell-based.

As usually defined, the IC50 is the concentration that gives 50% inhibition.

Sequence of PNPLA6 (Q8IY17 whole entry): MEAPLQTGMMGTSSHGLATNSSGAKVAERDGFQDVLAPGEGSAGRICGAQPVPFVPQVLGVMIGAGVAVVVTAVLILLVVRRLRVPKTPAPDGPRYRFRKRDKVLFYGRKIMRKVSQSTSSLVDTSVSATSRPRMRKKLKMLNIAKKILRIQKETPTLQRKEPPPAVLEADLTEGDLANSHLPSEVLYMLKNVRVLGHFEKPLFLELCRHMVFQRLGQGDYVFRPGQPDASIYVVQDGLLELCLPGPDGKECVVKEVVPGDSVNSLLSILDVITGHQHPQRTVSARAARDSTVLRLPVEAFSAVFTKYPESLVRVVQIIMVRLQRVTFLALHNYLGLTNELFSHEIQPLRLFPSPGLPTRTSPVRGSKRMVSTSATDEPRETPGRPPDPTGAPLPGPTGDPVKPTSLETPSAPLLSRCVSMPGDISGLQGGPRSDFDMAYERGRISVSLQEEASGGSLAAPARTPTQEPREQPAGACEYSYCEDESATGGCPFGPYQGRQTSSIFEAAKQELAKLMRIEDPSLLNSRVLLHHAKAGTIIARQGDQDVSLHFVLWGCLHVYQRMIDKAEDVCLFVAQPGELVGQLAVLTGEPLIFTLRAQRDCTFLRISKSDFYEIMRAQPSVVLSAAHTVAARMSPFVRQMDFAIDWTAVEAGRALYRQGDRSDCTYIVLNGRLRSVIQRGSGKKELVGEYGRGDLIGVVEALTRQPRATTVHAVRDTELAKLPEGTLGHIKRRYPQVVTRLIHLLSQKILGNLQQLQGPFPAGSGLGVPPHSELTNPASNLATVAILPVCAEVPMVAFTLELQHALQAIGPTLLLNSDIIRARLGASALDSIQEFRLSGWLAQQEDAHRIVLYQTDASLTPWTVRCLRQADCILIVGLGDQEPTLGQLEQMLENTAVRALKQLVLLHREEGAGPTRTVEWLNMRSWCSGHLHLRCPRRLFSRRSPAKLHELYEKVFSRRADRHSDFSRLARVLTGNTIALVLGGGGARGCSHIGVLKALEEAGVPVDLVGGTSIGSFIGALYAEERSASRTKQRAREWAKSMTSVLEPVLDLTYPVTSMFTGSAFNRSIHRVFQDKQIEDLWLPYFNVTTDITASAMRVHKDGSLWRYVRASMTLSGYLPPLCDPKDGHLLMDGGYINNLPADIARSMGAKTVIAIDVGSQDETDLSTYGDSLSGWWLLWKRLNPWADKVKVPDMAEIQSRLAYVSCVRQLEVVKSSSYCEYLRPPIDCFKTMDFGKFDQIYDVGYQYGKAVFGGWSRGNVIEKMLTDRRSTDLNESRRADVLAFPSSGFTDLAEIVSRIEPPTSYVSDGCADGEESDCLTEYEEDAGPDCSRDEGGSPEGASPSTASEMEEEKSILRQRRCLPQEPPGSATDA

Take `CN(C(=O)n1cnc(-c2ccc[n+]([O-])c2)c1)C1CCCCC1` [BIA 10-2474]: the “interaction with other proteins of the endocannabinoid system or endocannabinoid-binding TRP ion channels” value in [1] is listed as “did not interact”. Also, the IC50 at rat FAAH is not below 1000 nM; at ABHD11 it was more than 10000 nM; on ABHD6 [4] it was 81 nM; on FAAH [5] it was 50 to 70 nM; at FAAH [6], 49 nM; on FAAH [7], 7500 nM. Moreover, the half-inhibitory concentration (IC50) is 11000 nM at PNPLA6, 400 nM on FAAH2 and not below 1000 nM at FAAH [9] (human FAAH). Also, the “cross-reactivity with ABHD6” value at ABHD6 [2] was “cross-reactivity”. Further, at FAAH [3], the “cross-reactivity with FAAH” value is “cross-reactivity”. Besides, the “inhibition of ABHD6” value was more than 90% against ABHD6 [8] (10 μM, 4 h) and more than 90% against ABHD6 [8] (50 μM, 24 h). Besides, the “engagement of human FAAH” value on FAAH [10] is “fully engaged”.
Take `CN(C(=O)n1cnc(-c2cccnc2)c1)C1CCCCC1` [BIA 10-2639]: the half-maximal inhibitory concentration (IC50) on ABHD6 [4] worked out at 79 nM; at CES2, 630 nM; on FAAH [6] it was 49 nM; on FAAH [7], 4100 nM; at FAAH2, 100 nM.
For `O=C(Nc1cccnn1)N1CCC(=Cc2cccc(Oc3ccc(C(F)(F)F)cn3)c2)CC1` [PF04457845], in assay [1], the “interaction with other proteins of the endocannabinoid system or endocannabinoid-binding TRP ion channels” value is reported as “did not interact”. The IC50 on ABHD11 is more than 10000 nM; at ABHD6 [4] it was more than 10000 nM; at CES2, more than 10000 nM; on FAAH [6], 11 nM; on FAAH [7] it was 4 nM; against PNPLA6 it was more than 50000 nM. In addition, the half-maximal inhibitory concentration (IC50) on FAAH2 was 590 nM; at FAAH [9] (FAAH), 1 to 10 nM. In addition, the “engagement of human FAAH” value at FAAH [10] is on record as “fully engaged”.
